Experimental data from PubChem BioAssay AID328 (DTP/NCI, 2004).
Toxic doses and inconclusive results are not listed. Rule for the calls: active = survival T/C of 150% or more; inactive = T/C below 125% in these data. Non-standard residues stand in square brackets, D forms with d. Residues, ends and D or L forms follow the SMILES beside them. ξ: configuration not given here. *: point of attachment. ξF = NC(Cc1ccccc1)C(=O)O; ClAc = O=C(CCl)*

Tested on: BDF1 mice, P388 leukemia ip, median survival T/C
Assay: NCI In Vivo Anticancer Drug Screen. Data for tumor model P388 Leukemia (intraperitoneal) in B6D2F1 (BDF1) mice
Conditions: endpoint: median survival time, higher = longer survival
In short: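 Antitumour effect was judged in vivo: survival in drug-treated mice, normalised to that of vehicle-dosed controls, gives the reported T/C.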

[1] = dose: 100.0 mg/kg/injection, schedule: Q01DX001 (ip), vehicle: Klucel (hydroxypropylcellulose) (HPC)
[2] = dose: 200.0 mg/kg/injection, schedule: Q01DX001 (ip), vehicle: Klucel (hydroxypropylcellulose) (HPC)
[3] = dose: 400.0 mg/kg/injection, schedule: Q01DX001 (ip), vehicle: Klucel (hydroxypropylcellulose) (HPC)
[4] = dose: 100.0 mg/kg/injection, schedule: Q04DX003 (ip), vehicle: saline with Tween-80
[5] = dose: 200.0 mg/kg/injection, schedule: Q04DX003 (ip), vehicle: saline with Tween-80
[6] = dose: 100.0 mg/kg/injection, schedule: Q04DX003 (ip), vehicle: Klucel (hydroxypropylcellulose) (HPC)
[7] = dose: 200.0 mg/kg/injection, schedule: Q01DX009 (ip), vehicle: Klucel (hydroxypropylcellulose) (HPC)
[8] = dose: 200.0 mg/kg/injection, schedule: Q04DX003 (ip), vehicle: Klucel (hydroxypropylcellulose) (HPC)
[9] = dose: 400.0 mg/kg/injection, schedule: Q01DX009 (ip), vehicle: Klucel (hydroxypropylcellulose) (HPC)
[10] = dose: 400.0 mg/kg/injection, schedule: Q04DX003 (ip), vehicle: Klucel (hydroxypropylcellulose) (HPC)
[11] = dose: 50.0 mg/kg/injection, schedule: Q01DX009 (ip), vehicle: saline with Tween-80
[12] = dose: 100.0 mg/kg/injection, schedule: Q01DX009 (ip), vehicle: saline with Tween-80
[13] = dose: 200.0 mg/kg/injection, schedule: Q01DX009 (ip), vehicle: saline with Tween-80
[14] = dose: 100.0 mg/kg/injection, schedule: Q01DX009 (ip), vehicle: Klucel (hydroxypropylcellulose) (HPC)
[15] = dose: 25.0 mg/kg/injection, schedule: Q04DX003 (ip), vehicle: saline with Tween-80
[16] = dose: 50.0 mg/kg/injection, schedule: Q04DX003 (ip), vehicle: saline
[17] = dose: 100.0 mg/kg/injection, schedule: Q04DX003 (ip), vehicle: saline
[18] = dose: 12.5 mg/kg/injection, schedule: Q01DX009 (ip), vehicle: Klucel (hydroxypropylcellulose) (HPC)
[19] = dose: 25.0 mg/kg/injection, schedule: Q01DX009 (ip), vehicle: Klucel (hydroxypropylcellulose) (HPC)
[20] = dose: 50.0 mg/kg/injection, schedule: Q01DX009 (ip), vehicle: Klucel (hydroxypropylcellulose) (HPC)
[21] = dose: 50.0 mg/kg/injection, schedule: Q04DX003 (ip), vehicle: saline with Tween-80

Measured: T/C

Nc1cc2c(c[n+](Cc3ccccc3)c3ccccc23)c2ccccc12
inactive: dose: 3.13 mg/kg/injection, schedule: Q04DX003 (ip), vehicle: other 98 % of control

CC(Cc1ccc2c(c1)OCO2)C(C)Cc1ccc2c(c1)OCO2 (stereo not drawn)
inactive: [1] 100 % of control | [2] 100 % of control | [3] 100 % of control

CCc1ccc(NC(=O)c2ccccc2C(=O)O)cc1
inactive: [4] 122 % of control | [5] 104 % of control | dose: 400.0 mg/kg/injection, schedule: Q04DX003 (ip), vehicle: saline with Tween-80 109 % of control

CCN(CC)c1cc(Cl)c(C=O)cc1Br
inactive: [6] 104 % of control | [7] 100 % of control | [8] 95 % of control | [9] 95 % of control | [10] 100 % of control

O=C(NC12CC3CC(CC(C3)C1)C2)Oc1ccccc1
inactive: [11] 102 % of control | [12] 102 % of control | [13] 93 % of control

NC(C(=O)O)c1cccc(Cl)c1 (stereo not drawn)
inactive: [1] 91 % of control | [2] 108 % of control | [3] 95 % of control

CCOC(=O)C(OCc1ccccc1)(C(=O)NCCc1ccc(OC)c(OC)c1)C(C)C (stereo not drawn)
inactive: dose: 25.0 mg/kg/injection, schedule: Q04DX003 (ip), vehicle: other 100 % of control | dose: 50.0 mg/kg/injection, schedule: Q04DX003 (ip), vehicle: other 108 % of control | dose: 100.0 mg/kg/injection, schedule: Q04DX003 (ip), vehicle: other 93 % of control

COc1ccc(C2=CCCC2)cc1
inactive: [6] 108 % of control | [8] 95 % of control | [10] 100 % of control

Cc1ccc(CNc2ccc(C)c(Cl)c2)cc1
inactive: dose: 100.0 mg/kg/injection, schedule: Q01DX009 (ip), vehicle: other 104 % of control | dose: 200.0 mg/kg/injection, schedule: Q01DX009 (ip), vehicle: other 113 % of control | dose: 400.0 mg/kg/injection, schedule: Q01DX009 (ip), vehicle: other 118 % of control

Cc1nn(C)c2ccc([N+](=O)[O-])cc12
inactive: [14] 118 % of control | [7] 104 % of control | [9] 122 % of control

c1nc(SSc2ncnc3nc[nH]c23)c2[nH]cnc2n1
inactive: dose: 3.7 mg/kg/injection, schedule: Q04DX003 (ip), vehicle: saline 87 % of control | dose: 7.5 mg/kg/injection, schedule: Q04DX003 (ip), vehicle: saline 91 % of control | [15] 100 % of control | [16] 120 % of control | [4] 111 % of control | [17] 87 % of control | dose: 150.0 mg/kg/injection, schedule: Q04DX003 (ip), vehicle: saline 90 % of control | dose: 225.0 mg/kg/injection, schedule: Q04DX003 (ip), vehicle: saline 90 % of control | dose: 335.0 mg/kg/injection, schedule: Q04DX003 (ip), vehicle: saline 90 % of control

O=[N+]([O-])c1ccc(NS(=O)(=O)c2cc(Cl)ccc2Cl)c(C(F)(F)F)c1
inactive: [11] 96 % of control | [12] 100 % of control

CC(=O)NNc1ccccc1
inactive: [18] 109 % of control | [19] 109 % of control | [20] 100 % of control | [8] 117 % of control

Nc1ncncc1-c1cccc2ccccc12
inactive: [11] 108 % of control | [12] 99 % of control | [13] 108 % of control

CC(=O)Nc1ccc(C(=O)NN)cc1
inactive: [12] 108 % of control | [13] 105 % of control | dose: 400.0 mg/kg/injection, schedule: Q01DX009 (ip), vehicle: saline with Tween-80 97 % of control

CC1(C)CC(=O)c2ccccc21
inactive: dose: 25.0 mg/kg/injection, schedule: Q01DX009 (ip), vehicle: saline 99 % of control | dose: 50.0 mg/kg/injection, schedule: Q01DX009 (ip), vehicle: saline 115 % of control | [16] 102 % of control | dose: 100.0 mg/kg/injection, schedule: Q01DX009 (ip), vehicle: saline 95 % of control | [17] 100 % of control | dose: 200.0 mg/kg/injection, schedule: Q04DX003 (ip), vehicle: saline 109 % of control

OCn1cnc2c(SC3CCCC3)ncnc21
inactive: dose: 75.0 mg/kg/injection, schedule: Q01DX009 (ip), vehicle: Klucel (hydroxypropylcellulose) (HPC) 120 % of control

CCC(=O)OC1CC2(C)C(=CC1=O)CCC1C2CCC2(C)C(OC(=O)CC)CCC12 (stereo not drawn)
inactive: [1] 90 % of control | [14] 104 % of control | [6] 108 % of control | [2] 95 % of control | [7] 109 % of control | [8] 100 % of control | [3] 100 % of control | [9] 109 % of control | [10] 95 % of control

CC1(C)CC2(C)OC2C2(C1)N=NC(=Nc1ccccc1)O2 (stereo not drawn)
inactive: [11] 117 % of control

O=c1[nH]nc(-c2ccccc2)nc1/C(=N\Nc1ccc([N+](=O)[O-])cc1)c1ccccc1
inactive: [11] 89 % of control | [12] 89 % of control | [13] 98 % of control

O=C(O)c1cc(Cl)c(C(=O)O)cc1Cl
inactive: dose: 75.0 mg/kg/injection, schedule: Q01DX009 (ip), vehicle: saline with Tween-80 116 % of control | dose: 150.0 mg/kg/injection, schedule: Q01DX009 (ip), vehicle: saline with Tween-80 104 % of control | dose: 300.0 mg/kg/injection, schedule: Q01DX009 (ip), vehicle: saline with Tween-80 108 % of control

CC(=O)Oc1ccc(N2C(=O)C=CC2=O)cc1
inactive: dose: 1.56 mg/kg/injection, schedule: Q04DX003 (ip), vehicle: Klucel (hydroxypropylcellulose) (HPC) 100 % of control | dose: 3.12 mg/kg/injection, schedule: Q01DX009 (ip), vehicle: Klucel (hydroxypropylcellulose) (HPC) 104 % of control | dose: 3.12 mg/kg/injection, schedule: Q04DX003 (ip), vehicle: Klucel (hydroxypropylcellulose) (HPC) 100 % of control | dose: 6.25 mg/kg/injection, schedule: Q01DX009 (ip), vehicle: Klucel (hydroxypropylcellulose) (HPC) 104 % of control | dose: 6.25 mg/kg/injection, schedule: Q04DX003 (ip), vehicle: Klucel (hydroxypropylcellulose) (HPC) 100 % of control | dose: 9.2 mg/kg/injection, schedule: Q04DX003 (ip), vehicle: Klucel (hydroxypropylcellulose) (HPC) 90 % of control | [18] 109 % of control | dose: 14.0 mg/kg/injection, schedule: Q04DX003 (ip), vehicle: Klucel (hydroxypropylcellulose) (HPC) 95 % of control

[Cu+2].[O-]c1ccc(Br)c2cccnc12.[O-]c1ccc(Br)c2cccnc12
inactive: dose: 12.5 mg/kg/injection, schedule: Q04DX003 (ip), vehicle: saline with Tween-80 100 % of control | [15] 90 % of control | [21] 95 % of control | dose: 75.0 mg/kg/injection, schedule: Q04DX003 (ip), vehicle: saline with Tween-80 90 % of control

COc1c(OC)c(OC)c2c(c1OC)c(=O)c1ccccc1n2C
inactive: dose: 50.0 mg/kg/injection, schedule: Q01DX010 (ip), vehicle: carboxymethylcellulose (CMC) 104 % of control | dose: 100.0 mg/kg/injection, schedule: Q01DX010 (ip), vehicle: carboxymethylcellulose (CMC) 122 % of control

CN1CCCC(CC2c3ccccc3Sc3ccccc32)C1 (stereo not drawn)
inactive: dose: 7.5 mg/kg/injection, schedule: Q01DX010 (ip), vehicle: saline 100 % of control | dose: 15.0 mg/kg/injection, schedule: Q01DX010 (ip), vehicle: saline 100 % of control | dose: 30.0 mg/kg/injection, schedule: Q01DX010 (ip), vehicle: saline 100 % of control | dose: 60.0 mg/kg/injection, schedule: Q01DX010 (ip), vehicle: saline 109 % of control

CC(=O)Nc1nccs1
inactive: [19] 104 % of control | dose: 25.0 mg/kg/injection, schedule: Q04DX003 (ip), vehicle: Klucel (hydroxypropylcellulose) (HPC) 95 % of control | [20] 95 % of control | dose: 50.0 mg/kg/injection, schedule: Q04DX003 (ip), vehicle: Klucel (hydroxypropylcellulose) (HPC) 91 % of control | [14] 109 % of control | [6] 95 % of control

[O-]c1c[n+](-c2ccccc2)no1
inactive: [11] 119 % of control | [13] 94 % of control

O=C(CCl)NCC(=O)NC(Cc1ccccc1)C(=O)O (stereo not drawn) (ClAc-Gly-[ξF]-OH)
inactive: [21] 109 % of control | [4] 109 % of control | [5] 90 % of control
